“Also recorded” adds a separate entry of the source.
Assays:
S. epidermidis biofilms [1] = assay: Crystal violet assay of total biomass of pre-formed S. epidermidis biofilms, PEMF with or without antibiotic (Example 1); format: cell-based, Staphylococcus epidermidis; conditions: for eradication of S. epidermidis biofilm by antibiotic alone: antibiotic alone at MIC, no PEMF, CV and alamarBlue (FIG. 2, FIG. 3); for combined PEMF + antibiotic treatment compared to theoretical additive effect: antibiotic at MIC, all PEMF time points, p<0.001
Description: Experiments were performed initially on S. epidermidis strain ATCC 14990 and further tested on S. epidermidis strain ATCC 35984, which is known to be a particularly strong biofilm former (Okajima, Y. et al., 2006, Invest Ophthalmol Vis Sci, 47(7):2971-2975). Trypticase soy broth (TSB) (30 g l^−1 in water, autoclaved at 121° C. for 15 minutes; BD Bacto TSB from Fisher Scientific) was used for in vitro growth of bacterial cell cultures, and 50% glucose was added to the medium at a final concentration of 0.25%. Sterile Falcon 6-well, clear, flat-bottom, tissue culture-treated, cell culture plates (Corning; Lot #1059012) and sterile CELLSTAR cell culture 24-well, PS, clear, tissue culture-treated plates (Greiner; Lot #E100501A) were used for S. epidermidis cell plating and biofilm growth (6-well plates used for crystal violet assay experiments; 24-well plates used for alamarBlue assay experiments).
The PEMF apparatus was custom made in the laboratory and was previously described in Ghalayani Esfahani et al. 2019 (Esfahani, A. et al., 2019, J Appl Microbiol, 126(1):87-101). Briefly, the PEMF apparatus consisted of an acrylic shelved rack with wrap-around Helmholtz coils, a signal generator, and a power supply. […] A digital oscilloscope (TBS1000C, Tektronix, Beaverton, OR) was used to monitor the signal waveform. All plates not under PEMF treatment were kept in a 37° C. incubator, identical temperature to the PEMF incubator.
S. epidermidis biofilms were grown by initially incubating freezer stock S. epidermidis cell scrapings in TSB media at 37° C. for 24 hours with shaking. Subsequently, the cells were diluted 1:100 into TSB media containing 0.25% glucose and then aliquoted, in 3 ml or 1 ml aliquots, into 6-well or 24-well plates, respectively. To test the ability of PEMF to disrupt pre-formed biofilms, inoculated plates were incubated for 24 hours to allow biofilm formation to occur. Negative controls of only TSB media containing 0.25% glucose (i.e., no cells) were also included for all plates to ensure no contamination occurred.
Crystal Violet (CV) assay was utilized to quantify biofilm formation in vitro as previously described (Esfahani, A. et al., 2019, J Appl Microbiol, 126(1):87-101). After incubation of the biofilm in the plates with or without treatment, the media and any non-adhered cells were removed. The well of the plates were then washed with Wash Buffer three times to ensure only biofilm-adhered cells remained. Next, wells were incubated with CV at room temperature for 15 minutes. The CV stain was then removed, and wells were washed twice with water. An 80% ethanol/20% acetone solution was then added and allowed to incubate for 20 minutes at room temperature to solubilize the dye. Absorbance readings were thereafter obtained at 570 nm and recorded for each well (BMG LABTECH, FLUOstar Omega plate reader).
To test possible synergism between PEMF exposure and antibiotic treatment, the MIC of both oxacillin and vancomycin for the specific S. epidermidis strain used was determined. S. epidermidis were first incubated in TSB media at 37° C. for 24 hours with shaking. […] After 24 hours, OD600 readings of the wells were taken. The MIC of each antibiotic was determined to be the lowest concentration to show inhibition of planktonic S. epidermidis cell growth.
To confirm the reproducibility of results, all experiments were run identically at least three times with similar outcomes before results were analyzed and reported. […]

[2] = system: Staphylococcus epidermidis (SE) biofilm; assay: Biofilm eradication by PEMF and Con-A t-MNPs (Example 3, preliminary data); format: cell-based; conditions: PEMF + Con-A t-MNPs + antibiotic (FIG. 9)
Description: Using Staphylococcus epidermidis (SE), the biofilm eradication increased over 80% when PEMF was administered at a frequency of 50 kHz and a magnetic field amplitude of 1.2 mT along with t-MNPs functionalized with Concanavalin-A (Con-A) that target components of the bacterial membrane, cell wall, and extracellular matrix.

S. epidermidis biofilms [3] = assay: Eradication of pre-formed S. epidermidis biofilm by PEMF + antibiotic on plastic plates (Example 4, Phases 2 and 3); format: cell-based, Staphylococcus epidermidis; conditions: for combined PEMF + antibiotic treatment compared to theoretical additive effect: all time points, plastic 6-well plates; for eradication of S. epidermidis biofilm by antibiotic alone: no PEMF
Description: Staphylococcus epidermidis (S. epidermidis) ATCC 14990 was used for the biofilm experiments. The observed results were further confirmed by repeating said tests on S. epidermidis strain ATCC 35984. To test the above model the cells were first grown in Trypticase Soy Broth (TSB) (30 gl^−1 in purified water, autoclaved at 121° C. for 15 min; Becton, Dickinson and Company, Los Angeles, CA). The cells were incubated for 24 hours at 37° C. and then diluted 1:100 into TSB with glucose and plated. Five phases of experiments with this set-up have been successfully completed:
3) Evaluation of PEMFs ability to enhance the efficacy of antibiotic (specifically oxacillin and vancomycin) treatment against fully formed S. epidermidis biofilms on cell culture treated plastic plates.
For the biofilm inhibition experiments PEMF was applied to all experimental plates immediately after the cells were plated, with the […] being placed in a non-treated 37° C. incubator for the duration of treatment. Alternatively, for phases 2-4, cells were plated and then placed back in the non-treated 37° C. incubator for 24 hours (deemed adequate time for a biofilm to fully form through the literature and confirmed by preliminary experiments) before being exposed to PEMF.
In each phase, PEMF exposure was delivered for the following intervals: • 0 hours ([…] group, in 37° C. incubator for entirety of experiment) • 4 hours×2 cycles (exposed to PEMF hours 1-4, placed in 37° C. incubator hours 5-8, exposed to PEMF hours 9-12) • 12 hours continuously • 24 hours continuously
It is important to note that for all phase 3 trials, all PEMF exposure groups were tested as listed and compared to identical PEMF exposure times plus antibiotic. In phase 5 trials, PEMF exposure was delivered for alternate intervals of 0 hours, 3 hours, 6 hours, and 12 hours. This decision was due to the increased biofilm eradication ability of PEMF when combined with magnetic fNPs. As greater eradication was observed, it was deemed relevant to test shorter PEMF exposure intervals that are more applicable in the clinical setting.
At the conclusion of said experiments, crystal violet and alamarBlue assays were used to quantify the remaining viable biofilm in each well, and CFU/ml counts were used to quantify the planktonic (free-living) S. epidermidis cells.
The calculation performed to determine the theoretical additive effect of PEMF+antibiotic treatment and compare to the empirical effect of simultaneous PEMF and antibiotic treatment was a simple probability calculation: P(A)+(1−P(A))*P(B).

Staphylococcal membranes = conditions: within 60 minutes of exposure; cited from earlier work
[4] = system: S. aureus (both methicillin- and vancomycin-resistant), S. epidermidis, and P. aeruginosa; conditions: cited from earlier work
[5] = up to 20 times its minimum bactericidal concentration; cited from earlier work
mammalian cells = conditions: cited from earlier work
[6] = system: Staph epidermidis biofilm; assay: AlamarBlue biofilm eradication with fNPs or NPs, PEMF and vancomycin (Example 2, Phase I); format: cell-based, Staphylococcus epidermidis
Description: A series of experiments were conducted on Staphylococcus epidermidis and aureus. Staph epidermidis cells were grown, diluted, and aliquoted onto cell culture plates. Biofilm was formed by letting the bacteria grow for 48 hrs. in the tissue culture wells. Planktonic cell growth was measured using serial dilutions and subsequently determining CFU/mL counts. Biofilm assay was performed through AlamarBlue cell viability reagent and obtaining fluorescence readings at 544/590 excitation/emission (ex/em). Magnetic nanoparticles functionalized with a lectin, Concanavalin-A, were purchase from Sigma Aldrich. Vancomycin was used as an antibiotic.
Biofilm-containing plates were exposed to different conditions and specifically: • 1) No treatment • 2) Vancomycin alone • 3) PEMF alone • 4) PEMF+Vancomycin • 5) fNPs only (5 different fNPs concentration) • 6) PEMF+fNPs (5 different fNPs concentration) • 7) PEMF+fNPs+Vancomycin (5 different fNPs concentration) • 8) NPs only (5 different fNPs concentration) • 9) PEMF+NPs (5 different fNPs concentration)
The NPs in the functionalized and non-functionalized groups had the same composition and size distribution. PEMF exposure was delivered at 37° C. and various periods: 0 hrs, 6 hrs, and 12 hrs.

| Compound | reduction of total biomass, quantified by CV assay (S. epidermidis biofilms [1]; PEMF 24-hour exposure + antibiotic at MIC simultaneously, pre-formed biofilm, vs 48-hour control group, mean) | eradication of S. epidermidis biofilm by antibiotic alone (S. epidermidis biofilms [1]) | combined PEMF + antibiotic treatment compared to theoretical additive effect (S. epidermidis biofilms [1]) | change in percentage of eradication when antibiotic was added to the nanoparticles [2] | combined PEMF + antibiotic treatment compared to theoretical additive effect (S. epidermidis biofilms [3]) | eradication of S. epidermidis biofilm by antibiotic alone (S. epidermidis biofilms [3]) | leakage of preloaded intracellular calcein dye (Staphylococcal membranes) | antibacterial activity [4] | cytotoxicity levels [5] | toxicity to mammalian cells (mammalian cells) | effect on eradication of adding Vancomycin to fNPs + PEMF ([6]; PEMF + fNPs + Vancomycin) | increase in biofilm eradication ([6]; antibiotic used alone) |
| --- | --- | --- | --- | --- | --- | --- | --- | --- | --- | --- | --- | --- |
| Cc1onc(-c2ccccc2)c1C(=O)N[C@@H]1C(=O)N2[C@@H]1SC(C)(C)[C@@H]2C(=O)O [oxacillin] | 74% | Neither oxacillin nor vancomycin (FIG. 2, FIG. 3) alone significantly eradicated | synergistically enhanced; also recorded: significantly synergistic | only slightly increased | significantly synergistic; also recorded: significant empirical synergism | Neither oxacillin nor vancomycin alone significantly eradicated | – | – | – | – | – | – |
| WR12: de novo designed synthetic antimicrobial peptide; N-terminal-cysteine form CRWWRWWRRWWRR (SEQ ID NO: 2) (N-terminal cysteine) | – | – | – | – | – | – | greater than 95% | potent antibacterial activity | negligible | – | – | – |
| LL-37: human cathelicidin antimicrobial peptide; N-terminal-cysteine form CLLGDFFRKSKEKIGKEFKRIVQRIKDFLRNLVPRTES (SEQ ID NO: 1) (N-terminal cysteine) | – | – | – | – | – | – | – | – | – | non-toxic | – | – |
| CN[C@H](CC(C)C)C(=O)N[C@H]1C(=O)N[C@@H](CC(N)=O)C(=O)N[C@H]2C(=O)N[C@H]3C(=O)N[C@H](C(=O)N[C@H](C(=O)O)c4cc(O)cc(O)c4-c4cc3ccc4O)[C@H](O)c3ccc(c(Cl)c3)Oc3cc2cc(c3O[C@@H]2O[C@H](CO)[C@@H](O)[C@H](O)[C@H]2O[C@H]2C[C@](C)(N)[C@H](O)[C@H](C)O2)Oc2ccc(cc2Cl)[C@H]1O [vancomycin] | – | Neither oxacillin nor vancomycin (FIG. 2, FIG. 3) alone significantly eradicated | synergistically enhanced; also recorded: significantly synergistic | only slightly increased | significantly synergistic | Neither oxacillin nor vancomycin alone significantly eradicated | – | – | – | – | does not increase much the eradication | 5% |
